From ChEMBL document CHEMBL4020848, “Antibacterial Activity Affected by the Conformational Flexibility in Glycine-Lysine Based α-Helical Antimicrobial Peptides” (J Med Chem, 2018)
The source made the active and inactive calls. No cut-off for these calls is given here.

What was measured:
Staphylococcus aureus [1] = assay: Bactericidal activity against clinical isolates of Staphylococcus aureus after 18 hrs by microdilution method; assay type: functional; details: read-out: MBC=>99.9
[2] = Selectivity index, ratio of HC50 for human RBC to MIC for Escherichia coli ATCC 25922
Staphylococcus aureus [3] = assay: Growth inhibition of Staphylococcus aureus ATCC 25923 measured every 10 mins for 4 hrs; assay type: functional
Escherichia coli [4] = assay: Induction of membrane permeabilization in Escherichia coli ATCC 25922 assessed as incipient damage at 0.25 uM after 1 hr by atomic force microscopic method; assay type: functional
[5] = Cytotoxicity against human peripheral blood leukocytes assessed as cell viability at 100 uM after 24 hrs by acridine orange/ethidium bromide staining based fluorescence microscopic method relative to control; set-up: species or system Leukocyte; details: read-out: Activity
Staphylococcus aureus [6] = assay: Bactericidal activity against Staphylococcus aureus ATCC 25923 after 18 hrs by microdilution method; assay type: functional; details: ATCC 25923, 18 h, read-out: MBC=>99.9
Pseudomonas aeruginosa [7] = assay: Antibacterial activity against Pseudomonas aeruginosa ATCC 27853 after 18 hrs by microdilution method; assay type: functional; details: ATCC 27853, 18 h
[8] = Selectivity index, ratio of HC50 for human RBC to MIC for Acinetobacter baumannii
Acinetobacter baumannii [9] = assay: Bactericidal activity against Acinetobacter baumannii ATCC 19606 after 18 hrs by microdilution method; assay type: functional; details: ATCC 19606 = CIP 70.34 = JCM 6841, 18 h, read-out: MBC=>99.9
Acinetobacter baumannii [10] = assay: Bactericidal activity against clinical isolates of Acinetobacter baumannii after 18 hrs by microdilution method; assay type: functional; details: read-out: MBC=>99.9
Escherichia coli [11] = assay: Induction of membrane permeabilization in Escherichia coli ATCC 25922 assessed as massive damage at 0.5 to 1 uM after 1 hr by atomic force microscopic method; assay type: functional
[12] = Genotoxicity in human peripheral blood leukocytes assessed as DNA damage up to 100 uM up to 24 hrs by alkaline comet assay; assay type: toxicity, cell-based; details: leukocyte
Staphylococcus aureus [13] = assay: Antibacterial activity against clinical isolates of Staphylococcus aureus after 18 hrs by microdilution method; assay type: functional
[14] = Selectivity index, ratio of HC50 for human RBC to MIC for Pseudomonas aeruginosa
Pseudomonas aeruginosa [15] = assay: Bactericidal activity against Pseudomonas aeruginosa ATCC 27853 after 18 hrs by microdilution method; assay type: functional; details: ATCC 27853, 18 h, read-out: MBC=>99.9
Escherichia coli [16] = assay: Antibacterial activity against clinical isolates of Escherichia coli after 18 hrs by microdilution method; assay type: functional
Escherichia coli [17] = assay: Induction of membrane permeabilization in Escherichia coli ATCC 25922 assessed as loss of pili/flagella at MBC after 1 hr by atomic force microscopic method; assay type: functional
Klebsiella pneumoniae [18] = assay: Antibacterial activity against Klebsiella pneumoniae ATCC 13883 after 18 hrs by microdilution method; assay type: functional; details: ATCC 13883, 18 h
Pseudomonas aeruginosa [19] = assay: Antibacterial activity against clinical isolates of Pseudomonas aeruginosa after 18 hrs by microdilution method; assay type: functional
[20] = Selectivity index, ratio of HC50 for human RBC to MIC for Klebsiella pneumoniae
Escherichia coli [21] = assay: Induction of membrane permeabilization in Escherichia coli ATCC 25922 assessed as surface indentations at MIC after 1 hr by atomic force microscopic method; assay type: functional
Acinetobacter baumannii [22] = assay: Antibacterial activity against clinical isolates of Acinetobacter baumannii after 18 hrs by microdilution method; assay type: functional
Escherichia coli [23] = assay: Bactericidal activity against Escherichia coli ATCC 25922 after 18 hrs by microdilution method; assay type: functional; details: ATCC 25922, 18 h, read-out: MBC=>99.9
Klebsiella pneumoniae [24] = assay: Bactericidal activity against clinical isolates of Klebsiella pneumoniae after 18 hrs by microdilution method; assay type: functional; details: read-out: MBC=>99.9
Escherichia coli [25] = assay: Antibacterial activity against Escherichia coli ATCC 25922 after 18 hrs by microdilution method; assay type: functional; details: ATCC 25922, 18 h
[26] = Selectivity index, ratio of HC50 for human RBC to MIC for Escherichia coli
Escherichia coli [27] = assay: Induction of membrane permeabilization in Escherichia coli ATCC 25922 assessed as formation of pores/cavities at MIC after 1 hr by atomic force microscopic method; assay type: functional
Escherichia coli [28] = assay: Induction of membrane permeabilization in Escherichia coli ATCC 25922 assessed as propidium iodide uptake preincubated up to 60 mins followed by propidium iodide addition by flow cytometry; assay type: functional
[29] = Selectivity index, ratio of HC50 for human RBC to MIC for Staphylococcus aureus
[30] = Selectivity index, ratio of HC50 for human RBC to MIC for Klebsiella pneumoniae ATCC 13883
Staphylococcus aureus [31] = assay: Antibacterial activity against Staphylococcus aureus ATCC 25923 after 18 hrs by microdilution method; assay type: functional; details: ATCC 25923, 18 h
Klebsiella pneumoniae [32] = assay: Bactericidal activity against Klebsiella pneumoniae ATCC 13883 after 18 hrs by microdilution method; assay type: functional; details: ATCC 13883, 18 h, read-out: MBC=>99.9
[33] = Cytotoxicity against human peripheral blood leukocytes assessed as cell viability at 50 uM after 24 hrs by acridine orange/ethidium bromide staining based fluorescence microscopic method relative to control; set-up: species or system Leukocyte; details: read-out: Activity
[34] = Selectivity index, ratio of HC50 for human RBC to MIC for Pseudomonas aeruginosa ATCC 27853
Escherichia coli [35] = assay: Induction of membrane permeabilization in Escherichia coli ATCC 25922 assessed as bleb formation at MIC after 1 hr by atomic force microscopic method; assay type: functional
[36] = Cytotoxicity against human peripheral blood leukocytes assessed as cell viability at 50 uM after 4 hrs by acridine orange/ethidium bromide staining based fluorescence microscopic method relative to control; set-up: species or system Leukocyte; details: read-out: Activity
Pseudomonas aeruginosa [37] = assay: Bactericidal activity against clinical isolates of Pseudomonas aeruginosa after 18 hrs by microdilution method; assay type: functional; details: read-out: MBC=>99.9
[38] = Cytotoxicity against human peripheral blood leukocytes assessed as cell viability at 100 uM after 4 hrs by acridine orange/ethidium bromide staining based fluorescence microscopic method relative to control; set-up: species or system Leukocyte; details: read-out: Activity
[39] = Selectivity index, ratio of HC50 for human RBC to MIC for Staphylococcus aureus ATCC 25923
[40] = Selectivity index, ratio of HC50 for human RBC to MIC for Acinetobacter baumannii ATCC 19606
Escherichia coli [41] = assay: Induction of membrane permeabilization in Escherichia coli ATCC 25922 assessed as massive cell disruption/collapse at MBC after 1 hr by atomic force microscopic method; assay type: functional
Klebsiella pneumoniae [42] = assay: Antibacterial activity against clinical isolates of Klebsiella pneumoniae after 18 hrs by microdilution method; assay type: functional
Acinetobacter baumannii [43] = assay: Antibacterial activity against Acinetobacter baumannii ATCC 19606 after 18 hrs by microdilution method; assay type: functional; details: ATCC 19606 = CIP 70.34 = JCM 6841, 18 h
Escherichia coli [44] = assay: Bactericidal activity against clinical isolates of Escherichia coli after 18 hrs by microdilution method; assay type: functional; details: read-out: MBC=>99.9
Escherichia coli [45] = assay: Growth inhibition of Escherichia coli ATCC 25922 measured every 10 mins for 4 hrs; assay type: functional
Escherichia coli [46] = assay: Induction of membrane permeabilization in Escherichia coli ATCC 25922 assessed as propidium iodide uptake at MIC preincubated for 15 mins followed by propidium iodide addition by flow cytometry relative to control; assay type: functional

In the case of H-KIAKGALKALKIAKVALKAL-NH2, the MBC (Staphylococcus aureus [1]) is reported as 8 µM, the Selectivity Index [2] is reported as 60 to 120 and the IC50 (Staphylococcus aureus [3]) is reported as 800 nM. For the same substance, the Activity (Escherichia coli [4]) was “Active”, the viability at 24 h, 100 µM [5] was 83% and the MBC (Staphylococcus aureus [6]) was 8 to 16 µM. It also gave an MIC (Pseudomonas aeruginosa [7]) of 2 µM, a Selectivity Index [8] of 60 and an MBC (Acinetobacter baumannii [9]) of 1 µM. For the same substance, the MBC (Acinetobacter baumannii [10]) was 1 µM, the Activity (Escherichia coli [11]) was “Active” and the Activity [12] was “Non-Toxic”. The MIC (Staphylococcus aureus [13]) was 4 to 8 µM, the Selectivity Index [14] was 7 to 15 and the MBC (Pseudomonas aeruginosa [15]) was 4 µM. For the same substance, the MIC (Escherichia coli [16]) was 4 µM, the Activity (Escherichia coli [17]) was “Active” and the MIC (Klebsiella pneumoniae [18]) was 2 µM. For the same substance, the MIC (Pseudomonas aeruginosa [19]) was 2 to 4 µM, the Selectivity Index [20] was 7 and the Activity (Escherichia coli [21]) was “Active”. The MIC (Acinetobacter baumannii [22]) was 0.5 µM, the MBC (Escherichia coli [23]) was 0.5 to 1 µM and the MBC (Klebsiella pneumoniae [24]) was 8 µM. The MIC (Escherichia coli [25]) was 0.25 to 0.5 µM, the Selectivity Index [26] was 7 and the Activity (Escherichia coli [27]) was “Active”. It also gave an IC50 (Escherichia coli [28]) of 500 nM, a Selectivity Index [29] of 4 to 8 and a Selectivity Index [30] of 15. It also gave an MIC (Staphylococcus aureus [31]) of 8 to 16 µM, an MBC (Klebsiella pneumoniae [32]) of 2 µM and a viability at 24 h, 50 µM [33] of 92%. The Selectivity Index [34] was 15, the Activity (Escherichia coli [35]) was “Active” and the viability at 4 h, 50 µM [36] was 92%. The MBC (Pseudomonas aeruginosa [37]) was 4 µM, the viability at 4 h, 100 µM [38] was 89% and the Selectivity Index [39] was 2 to 4. The Selectivity Index [40] was 30 to 60, the Activity (Escherichia coli [41]) was “Active” and the MIC (Klebsiella pneumoniae [42]) was 4 µM. It also gave an MIC (Acinetobacter baumannii [43]) of 0.5 to 1 µM, an MBC (Escherichia coli [44]) of 8 µM and an IC50 (Escherichia coli [45]) of 350 nM.
H-KIALKALKALKALGKALKAL-NH2 showed an MBC (Staphylococcus aureus [1]) of 4 to 8 µM, a Selectivity Index [2] of 5 to 10 and an IC50 (Staphylococcus aureus [3]) of 400 nM. For the same substance, the MBC (Staphylococcus aureus [6]) was 4 µM, the MIC (Pseudomonas aeruginosa [7]) was 8 to 16 µM and the Selectivity Index [8] was less than 1. It also gave an MBC (Acinetobacter baumannii [9]) of 2 µM, an MBC (Acinetobacter baumannii [10]) of 32 µM and an MIC (Staphylococcus aureus [13]) of 2 to 4 µM. It also gave a Selectivity Index [14] of less than 1, an MBC (Pseudomonas aeruginosa [15]) of 16 µM and an MIC (Escherichia coli [16]) of 32 µM. For the same substance, the Activity (Escherichia coli [17]) was “Active”, the MIC (Klebsiella pneumoniae [18]) was 2 to 4 µM and the MIC (Pseudomonas aeruginosa [19]) was 32 µM. For the same substance, the Selectivity Index [20] was less than 1, the Activity (Escherichia coli [21]) was “Active” and the MIC (Acinetobacter baumannii [22]) was 16 to 32 µM. It also gave an MBC (Escherichia coli [23]) of 2 to 4 µM, an MBC (Klebsiella pneumoniae [24]) of 32 to 64 µM and an MIC (Escherichia coli [25]) of 1 to 2 µM. The Selectivity Index [26] was less than 1, the Activity (Escherichia coli [27]) was “Active” and the IC50 (Escherichia coli [28]) was 200 nM. For the same substance, the Selectivity Index [29] was 2 to 6, the Activity (Escherichia coli [46]) was greater than 80% and the Selectivity Index [30] was 2 to 6. It also gave an MIC (Staphylococcus aureus [31]) of 4 µM, an MBC (Klebsiella pneumoniae [32]) of 4 µM and a Selectivity Index [34] of less than 1. The Activity (Escherichia coli [35]) was “Active”, the MBC (Pseudomonas aeruginosa [37]) was 32 µM and the Selectivity Index [39] was 2.5. The Selectivity Index [40] was 5, the Activity (Escherichia coli [41]) was “Active” and the MIC (Klebsiella pneumoniae [42]) was 16 to 32 µM. It also gave an MIC (Acinetobacter baumannii [43]) of 2 µM, an MBC (Escherichia coli [44]) of 32 µM and an IC50 (Escherichia coli [45]) of 350 nM.
H-KIGKALGKALKALGKALGKA-NH2 gave an MBC (Staphylococcus aureus [1]) of 16 to 32 µM, a Selectivity Index [2] of 2 and an IC50 (Staphylococcus aureus [3]) of 2300 nM. For the same substance, the MBC (Staphylococcus aureus [6]) was 32 µM, the MIC (Pseudomonas aeruginosa [7]) was 8 µM and the Selectivity Index [8] was less than 1. For the same substance, the MBC (Acinetobacter baumannii [9]) was 2 µM, the MBC (Acinetobacter baumannii [10]) was 64 µM and the MIC (Staphylococcus aureus [13]) was 16 µM. For the same substance, the Selectivity Index [14] was less than 1, the MBC (Pseudomonas aeruginosa [15]) was 16 µM and the MIC (Escherichia coli [16]) was 32 to 64 µM. The Activity (Escherichia coli [17]) was “Active”, the MIC (Klebsiella pneumoniae [18]) was 16 µM and the MIC (Pseudomonas aeruginosa [19]) was 16 to 32 µM. The Selectivity Index [20] was less than 1, the Activity (Escherichia coli [21]) was “Active” and the MIC (Acinetobacter baumannii [22]) was 32 to 64 µM. It also gave an MBC (Escherichia coli [23]) of 16 µM, an MBC (Klebsiella pneumoniae [24]) of 32 µM and an MIC (Escherichia coli [25]) of 8 µM. For the same substance, the Selectivity Index [26] was less than 1, the Activity (Escherichia coli [27]) was “Active” and the IC50 (Escherichia coli [28]) was 1400 nM. The Selectivity Index [29] was less than 1, the Activity (Escherichia coli [46]) was greater than 80% and the Selectivity Index [30] was less than 1. The MIC (Staphylococcus aureus [31]) was 16 µM, the MBC (Klebsiella pneumoniae [32]) was 32 µM and the Selectivity Index [34] was 2. The Activity (Escherichia coli [35]) was “Active”, the MBC (Pseudomonas aeruginosa [37]) was 32 µM and the Selectivity Index [39] was less than 1. The Selectivity Index [40] was 5, the Activity (Escherichia coli [41]) was “Active” and the MIC (Klebsiella pneumoniae [42]) was 16 µM. It also gave an MIC (Acinetobacter baumannii [43]) of 2 µM, an MBC (Escherichia coli [44]) of 64 µM and an IC50 (Escherichia coli [45]) of 700 nM.
